One assay has as its system laying hens. In words: Breeding test: production performance of laying hens. As to conditions: 158 days; for ADFI / EPR (%) / EW (g): 500 ppm in basal daily ration; for feed-to-egg ratio: Table 4, 500 ppm in basal daily ration. The assay is classed as in vivo, Jingbai laying hens. From the text: The test adopted a single-factor random design. 420 147-day-old Jingbai laying hens with similar body weights were selected and randomly divided into 7 treatment groups, with 3 replications per group and 20 Jingbai laying hens (half of male and female) per replication. The poultry houses and utensils were sterilized before the test. During the test period, the Jingbai laying hens were cage cultured in the same laying poultry house under the same feeding and management conditions. The basal daily ration was mainly corn-soybean meal, and no other antioxidant ingredients or growth promoters were added additionally during the entire feeding process. The test groups include a control group and test groups I-VII. The basal daily ration was fed for the control group I only, and 500 ppm of different aspartic acid derivatives were added into the basal daily ration for the test groups II-VII, as shown in Table 3. The pre-feeding period was 10 days, and the test period was 158 days. The test laying hens were free to drink water and eat feed, and were fed twice a day.
Parameter statistics: During the test period, taking each repetition as a unit, the total egg number, the egg production, and the feed intake were recorded every day, and the egg production rate (EPR), the average daily feed intake (ADFI, g/d), the egg weight (EW, g) and the feed-to-egg ratio (FER) of the laying hens during the entire test were calculated.
Calculation formulas are as follows: […]
(§1) The test data was statistically analyzed using SPSS18 software. First, a one-way analysis of variance (ANOVA) was performed on the data. If the difference between treatments is significant, Duncan's method was used for multiple comparisons, and the significance level was 0.05.

The test system of another assay is grass carps. In words: Use of aspartic acid derivatives in feeds for fish (grass carp breeding test). The assay is classed as in vivo. As to conditions: for Average final weight (g) / FCR / Weight gain (%): grass carps, 3000 ppm in feed, 8 weeks; for effect on weight gain of grass carps (in words): 3000 ppm, compared with the control group. Here is the method: Test fish: The test fishes used were healthy and lively grass carp fingerlings with uniform size, which were fed in large cages for 4 weeks before being used for formal breeding test. The experimental system was a small floating cage (specification: 1.1×1.1×1.1 m^3), each small floating cage being equipped with an aeration head, providing aeration 24 h a day. Both the small floating cage and the temporary cage were placed in a 3500 m^2 pond of the test field, the depth of the pond was about 1.5 m, and the water of the pond was fully aerated in the bottom of the pond. 560 grass carps that were hungry for 1 day were randomly divided into 7 groups, with 4 replications per group and 20 grass carps per replication. By taking each replication as a unit, all of the grass carps were weighed, and then placed in 28 cages and fed with test feeds containing different test samples at the same content level.
Test feeds: The feeds for the test were self-prepared based on the formulations in Table 6, and different test samples were added at the same content level for different test groups according to Table 7, respectively.
The feed raw materials used were ground by ultrafine grinding and fed into a puffing machine produced by Jiangsu Muyang Group Co., Ltd. to make 3 mm floating puffed feed, where the mold clearing temperature was 130° C., 3% soybean oil was sprayed using an oil spraying equipment, and the obtained feed was sealed and stored in a cool place for later use.
Test management: The test adopted controlled artificial feeding, and the feeding amount was adjusted once a week. The feeding levels for all the groups (based on the initial fish weight) were exactly the same, and the grass carps were fed twice a day (7:30 and 15:00). The total feeding amount was 580 g/replication test group. The test period was 8 weeks. During the test, the water quality was regularly monitored. The water temperature during the whole breeding process was 26.88±3.08° C., DO>5.0 mg O L^−1, pH 7.8, ammonia nitrogen<0.50 mg N L^−1, nitrite nitrogen<0.05 mg N L^−1.
Parameter statistics: During the test, after the provisioning of feeds has been stopped for 1 day, fishes in each cage were weighed as a whole, and the weight gain (WG, %) and the feed conversion ratio (FCR) were calculated. Calculation formulas are as follows:
[formula] [formula] (3) Test Results

The test system of another assay is weaned piglets. In words: Breeding test: production performance of weaned piglets. Type of assay: in vivo, Duroc×Landrace×Yorkshire cross-bred weaned piglets. The conditions noted are these: for increase of the average daily gain of the test pigs: compared with the control group, not significant; for ADFI (g/d*each pig) / ADG (g/d*each pig) / FCR: weaned piglets, 45 ppm in basal daily ration, 40 days.
Source text: From 95 litters of 28±2 days old Duroc×Landrace×Yorkshire cross-bred weaned piglets, 360 clinically healthy piglets with similar body weights were selected as test pigs, which were randomly divided into 12 groups, with 3 replications per group and 10 pigs (half of male and female) per replication. The piglets were attracted to the food trough at the age of 7 days, and the hog house for 28-day-old weaned pigs has a cement floor, steel fence, good ventilation, and suitable temperature. The pigpens and utensils were sterilized before the test.
During the test period, the test pigs were free-stall housed in the same pigpen under the same feeding and management conditions, and were free to drink water and eat feed. The hog house was cleaned once a day, and the floor is washed once every three days to maintain clean and hygienic conditions. The test pigs were fed three times a day. The test groups include control and test groups. Group I is the control group, in which only the basal daily ration was fed to the piglets. […] 1000 ppm of a the aspartic acid derivative metal ion salt was added into the basal daily ration for the piglets in the groups VIII-XII, as shown in Table 2. No other antioxidant ingredients or growth promoters were added for the test groups during the entire feeding process. The test period was 40 days.
The test pigs were weighed during 7:00 to 9:00 in the morning of Day 0 and Day 40 after the start of the test. During the test period, the feed intake and health status of the piglets were observed every day, the remaining daily ration was weighed, the feed consumption was recorded, and the average daily feed intake (ADFI, g/d*each pig), the average daily gain (ADG, g/d*each pig), and the feed conversion ratio (FCR) were calculated. Calculation formulas are as follows: […]
as §1

A further assay has as its system broilers. In words: Breeding test: production performance of broilers. The assay is classed as in vivo, yellow-feathered broilers. As to conditions: for effect on the average daily gain of the test broilers (in words): 300 ppm, compared with the control group; for ADFI (g/d*each broiler) / ADG (g/d*each broiler) / FCR: broilers, 300 ppm in basal daily ration, 20 days.
Source text: The test adopted a single-factor random design. 420 1-day-old yellow-feathered broilers with similar body weights and having an average weight of 50 g were selected and randomly divided into 7 treatment groups, with 3 replications per group and 20 yellow-feathered broilers (half of male and female) per replication. The poultry houses and utensils were sterilized before the test. During the test period, the Jingbai laying hens were cage cultured in the same laying henhouse under the same feeding and management conditions. The basal daily ration was mainly corn-soybean meal, and no other antioxidant ingredients or growth promoters were added additionally during the entire feeding process. The test groups include a control group and test groups I-VII. The basal daily ration was fed for the control group I only, and 300 ppm of different aspartic acid derivatives were added into the basal daily ration for the test groups II-VII, as shown in Table 5. The test period was 20 days. The test yellow-feathered broilers were free to drink water and eat feed, and were fed twice a day. Taking each repetition as a unit, the test broilers were weighed at the age of 21 days (where provisioning of feeds was stopped for 12 hours, but provisioning of water was not stopped), the feed consumption of the test broilers were calculated, and the average daily feed intake (ADFI, g/d*each broiler), the average daily gain (ADG, g/d*each broiler) and the feed conversion ratio (FCR) were calculated for the test broilers of each group. Calculation formulas are as follows: […]
as §1

Each structure is given as a SMILES string. Marks after values point to notes of the source that are not given here.

Turning to `NC(=O)NC(CC(=O)O)C(=O)O` (racemic) [Compound 1, N-carbamoyl-DL-aspartic acid], in the assay with laying hens, the “ADFI” value was determined as 113.44 ± 1.55 g/day, the “EPR (%)” value is reported as 85.80 ± 0.14^b %, the “EW (g)” value is 55.49 ± 0.38^b g and the feed-to-egg ratio came out at 2.04 ± 0.02. Also, in the assay on grass carps, the “Average final weight (g)” value is listed as 774.5 ± 4.8^b g, the “FCR” value is 1.650 ± 0.011^b and the “Weight gain (%)” value is recorded as 83.19 ± 1.41^b %. In addition, in the assay with weaned piglets, the “increase of the average daily gain of the test pigs” value (shortened to “increase”) was found to be 7.0%, the “ADFI (g/d*each pig)” value is 315 ± 14^a g/d*each pig, the “ADG (g/d*each pig)” value is listed as 145 ± 10^abc g/d*each pig and the FCR was found to be 2.18 ± 0.05. In addition, in the assay on broilers, the “effect on the average daily gain of the test broilers (in words)” value is reported as “the most significant”, the “ADFI (g/d*each broiler)” value is reported as 38.83 ± 0.53 g/d*each broiler, the “ADG (g/d*each broiler)” value was 16.59 ± 0.14^b g/d*each broiler and the FCR is listed as 2.34 ± 0.03^b.
Consider `CCOC(=O)CC(NC(N)=O)C(=O)OCC` (racemic) [Compound 2, diethyl N-carbamoyl-DL-aspartate], for which, in the assay on laying hens, the “ADFI” value worked out at 115.19 ± 3.14 g/day, the “EPR (%)” value is given as 86.28 ± 0.20^b %, the “EW (g)” value is 55.94 ± 0.37^b g and the feed-to-egg ratio was found to be 2.06 ± 0.04. Also, in the assay on grass carps, the “effect on weight gain of grass carps (in words)” value is reported as “significant improvement effect”, the “Average final weight (g)” value is on record as 772.0 ± 6.3^b g, the “FCR” value is 1.650 ± 0.008^b and the “Weight gain (%)” value is 83.74 ± 1.53^b %. In the assay on weaned piglets, the “ADFI (g/d*each pig)” value is on record as 374 ± 11^b g/d*each pig, the “ADG (g/d*each pig)” value is reported as 176 ± 2^d g/d*each pig and the FCR stood at 2.13 ± 0.05. Moreover, in the assay with broilers, the “effect on the average daily gain of the test broilers (in words)” value is on record as “the most significant”, the “ADFI (g/d*each broiler)” value is listed as 40.05 ± 0.81^d g/d*each broiler, the “ADG (g/d*each broiler)” value was 16.81 ± 0.68^b g/d*each broiler and the FCR was 2.39 ± 0.05^b.
Consider `NCC(=O)NC(CC(=O)O)C(=O)O` (racemic) [Compound 8, N-glycyl-DL-aspartic acid], for which, in the assay with laying hens, the “ADFI” value is 113.01 ± 2.31 g/day, the “EPR (%)” value is listed as 84.86 ± 0.24^c %, the “EW (g)” value is 54.98 ± 0.39^a g and the feed-to-egg ratio was 2.06 ± 0.03. In the assay with grass carps, the “effect on weight gain of grass carps (in words)” value is reported as “significant improvement effect”, the “Average final weight (g)” value was 778.2 ± 4.3^b g, the “FCR” value was 1.671 ± 0.008^b and the “Weight gain (%)” value turned out to be 80.62 ± 1.46%. Moreover, in the assay with weaned piglets, the “increase” value was 5.2%, the “ADFI (g/d*each pig)” value is listed as 305 ± 12^a g/d*each pig, the “ADG (g/d*each pig)” value is given as 142 ± 1^ab g/d*each pig and the FCR was 2.15 ± 0.07. In addition, in the assay with broilers, the “ADFI (g/d*each broiler)” value is 36.05 ± 0.83^b g/d*each broiler, the “ADG (g/d*each broiler)” value is listed as 14.48 ± 0.24^b g/d*each broiler and the FCR is 2.49 ± 0.03^ab.
With `NCCCC(=O)NC(CC(=O)O)C(=O)O` (racemic) [Compound 9, N-(4-aminobutyryl)-DL-aspartic acid], in the assay on laying hens, the “ADFI” value came out at 113.64 ± 2.43 g/day, the “EPR (%)” value is on record as 86.09 ± 0.18^b %, the “EW (g)” value is 55.44 ± 0.37^b g and the feed-to-egg ratio was found to be 2.05 ± 0.04. For the same compound, in the assay with grass carps, the “Average final weight (g)” value was 781.8 ± 4.4^b g, the “FCR” value is given as 1.662 ± 0.008^b and the “Weight gain (%)” value was determined as 80.76 ± 1.52%. In the assay with weaned piglets, the “increase” value was determined as 8.1%, the “ADFI (g/d*each pig)” value is 311 ± 18^a g/d*each pig, the “ADG (g/d*each pig)” value was 146 ± 4^abc g/d*each pig and the FCR worked out at 2.13 ± 0.06. Besides, in the assay with broilers, the “ADFI (g/d*each broiler)” value was 37.92 ± 0.53^c g/d*each broiler, the “ADG (g/d*each broiler)” value is given as 15.84 ± 0.10^b g/d*each broiler and the FCR is recorded as 2.39 ± 0.04^b.
As for `NCCCCCCCCCC(=O)NC(CC(=O)O)C(=O)O` (racemic) [Compound 10, N-(10-aminodecanoyl)-DL-aspartic acid], in the assay with laying hens, the “ADFI” value amounted to 119.31 ± 1.84 g/day, the “EPR (%)” value is listed as 85.24 ± 0.18^c %, the “EW (g)” value was 57.45 ± 0.47^c g and the feed-to-egg ratio is 2.08 ± 0.03. Besides, in the assay on grass carps, the “Average final weight (g)” value is on record as 781.0 ± 5.1^b g, the “FCR” value is on record as 1.653 ± 0.009^b and the “Weight gain (%)” value was found to be 81.58 ± 0.96%. Moreover, in the assay with weaned piglets, the “ADFI (g/d*each pig)” value is 321 ± 7^a g/d*each pig, the “ADG (g/d*each pig)” value was 150 ± 1^bc g/d*each pig and the FCR is listed as 2.14 ± 0.06. Also, in the assay with broilers, the “ADFI (g/d*each broiler)” value is on record as 34.82 ± 0.64^a g/d*each broiler, the “ADG (g/d*each broiler)” value is on record as 14.40 ± 0.15^b g/d*each broiler and the FCR was 2.42 ± 0.04^b.
Turning to `NCCCCCCCCCCCCCC(=O)NC(CC(=O)O)C(=O)O` (racemic) [Compound 11, N-(14-aminomyristoyl)-DL-aspartic acid], in the assay with laying hens, the “ADFI” value was 115.13 ± 2.91 g/day, the “EPR (%)” value was 85.24 ± 0.17^c %, the “EW (g)” value is given as 55.45 ± 0.35^b g and the feed-to-egg ratio came to 2.08 ± 0.04. Besides, in the assay with grass carps, the “Average final weight (g)” value is listed as 769.2 ± 4.5^ab g, the “FCR” value is reported as 1.671 ± 0.008^b and the “Weight gain (%)” value was found to be 82.32 ± 1.24%. Further, in the assay on weaned piglets, the “ADFI (g/d*each pig)” value is given as 322 ± 16^a g/d*each pig, the “ADG (g/d*each pig)” value is on record as 150 ± 4^bc g/d*each pig and the FCR turned out to be 2.14 ± 0.05. In addition, in the assay on broilers, the “ADFI (g/d*each broiler)” value is listed as 36.70 ± 0.54^ac g/d*each broiler, the “ADG (g/d*each broiler)” value is on record as 15.02 ± 0.13^b g/d*each broiler and the FCR was 2.44 ± 0.04^b.

The record behind these values is US12478081B2, “Application of aspartic acid derivative in preparing animal feed additive” (ANIPHA TECHNOLOGIES PTY LTD, priority 2018, dated 2025).
